Laboratory results published in US4970297A, “Transglutaminase inhibitors” (Syntex (U.S.A.) Inc., priority 1987, dated 1990).

Tests used:
transglutaminase = conditions: previously reported inhibitors; cited from earlier work
[1] = system: galactose-induced cataracts; test: Cataract therapy: galactose-induced cataracts; format: in vivo; conditions: oral route in the diet at 0.05%
tissue transglutaminase = target: T1, tissue transglutaminase (UniProt P08587); test: Inactivation of tissue transglutaminase; format: biochemical
T1 construct: Liver transglutaminase from guinea pig liver was isolated and partially purified; from tissue; host or cells: guinea pig liver
Description: Liver transglutaminase from guinea pig liver was isolated and partially purified according to the procedure outlined in "Methods of Enzymology", Vol. 113, pp. 358-375, with minor modifications. The 105,000×g supernatant from the 15,000×g supernatant of a crude homogenate of guinea pig liver, was chromatographed on DEAE-Sepharose CL-6B. Enzymatic activity was eluted with a 0-1.0M NaCl gradient in 5 mM TRIS, 2 mM EDTA pH 7.5 buffer. Fractions containing activity were pooled, dialyzed against 50 mM TRIS-HCl, 2 mM EDTA, pH 7.5 buffer and concentrated, when necessary, by Amicon Ultrafiltration (PM 10 filters).
The activity and inhibition of guinea pig liver transglutaminase was assayed by measurement of the rate of incorporation of hydroxylamine into simple glutaminyl peptide derivatives, preferably CBZ-(L)-Glutaminyl-Glycine (see Folk and Chung, "Methods in Enzymology", Vol. 113, pp. 359-361). […]
Prior to activity determination, guinea pig liver transglutaminase was activated anaerobically with 5 mM calcium chloride and 1 mM dithiothreitol at 25° C. […] The concentration of product formed after 10-25 minutes incubation was determined by quenching with 250 microliters of acidic ferric chloride reagent and measurement of the absorbance at 525 nm using a Gilford 2600 UV/VIS spectrophotometer. Typical uninhibited samples provided sufficient product for 0.5 absorbance units at 525 nm. […]

human T-lymphocyte = test: Human T-lymphocyte transformation in vitro; format: cell-based; conditions: at 10^-6 in vitro
Source text: Transglutaminase inactivator, N-benzyloxycarbonyl-D,L-β-(3-bromo-4,5-dihydroisoxazol-5-yl)-alanine (4-(ethoxycarbonyl)phenyl)amide, inhibited human T-lymphocyte transformation at 10^-6 in vitro.

[2] = system: Nippostronglus braziliensis; test: In vitro assay against Nippostronglus braziliensis; format: cell-based; set-up: key: A compound is defined as active if (1) cast formation is reduced 50 percent or more or (2) viability and motility together are reduced 50 percent or more; conditions: 50 μg/ml, fourth larval stage (L4), incubated at 37° C. for seven days
Description: N-Benzyloxycarbonyl-D,L-β-(3-bromo-4,5-dihydroisoxazol-5-yl)-alanine benzylamide was active against Nippostronglus braziliensis in an in vitro assay.
Rats were inoculated with 5,000 to 6,000 N. braziliensis third stage larvae subcutaneously. Seventy-two hours later rats were sacrificed and the fourth stage larvae harvested. Each drug was tested at 50 μg/ml against the fourth larval stage (L4) of N. braziliensis at approximately 50 L4/well. This mixture was incubated at 37° C. for a total of seven days and then read for activity. Parameters used to determine drug activity are motility, percent viability, and percent of L4 able to molt to the adult (percent cast formation). A compound is defined as active if (1) cast formation is reduced 50 percent or more or (2) viability and motility together are reduced 50 percent or more.

Hymenolepsis nana = test: In vivo assay of anthelmintic activity, mixed helminth infection in mice; set-up: species or system Swiss-Webster mice; conditions: 1000 ppm in the food ad lib for 11 days from 24 hours post-infection, sacrificed on day 17
Description: (§1) Male, Swiss-Webster mice were challenged with a mixed helminth infection of Nematospiroides dubius and Hymenolepsis nana. Starting 24 hours post-infection (p.i.) mice were treated for 11 days ad lib with N-Benzyloxycarbonyl-D,L-β-(3-bromo-4,5-dihydroisoxazol-5-yl)-alanine benzylamide mixed in the food at 1000 ppm. Animals were sacrificed on day 17 to examine parasite burden in the intestine.

Nematospiroides dubius = test: as above; set-up: species or system Swiss-Webster mice; conditions: 1000 ppm in the food ad lib for 11 days from 24 hours post-infection, sacrificed on day 17
Description: as §1

T1 sequence (P08587 whole entry): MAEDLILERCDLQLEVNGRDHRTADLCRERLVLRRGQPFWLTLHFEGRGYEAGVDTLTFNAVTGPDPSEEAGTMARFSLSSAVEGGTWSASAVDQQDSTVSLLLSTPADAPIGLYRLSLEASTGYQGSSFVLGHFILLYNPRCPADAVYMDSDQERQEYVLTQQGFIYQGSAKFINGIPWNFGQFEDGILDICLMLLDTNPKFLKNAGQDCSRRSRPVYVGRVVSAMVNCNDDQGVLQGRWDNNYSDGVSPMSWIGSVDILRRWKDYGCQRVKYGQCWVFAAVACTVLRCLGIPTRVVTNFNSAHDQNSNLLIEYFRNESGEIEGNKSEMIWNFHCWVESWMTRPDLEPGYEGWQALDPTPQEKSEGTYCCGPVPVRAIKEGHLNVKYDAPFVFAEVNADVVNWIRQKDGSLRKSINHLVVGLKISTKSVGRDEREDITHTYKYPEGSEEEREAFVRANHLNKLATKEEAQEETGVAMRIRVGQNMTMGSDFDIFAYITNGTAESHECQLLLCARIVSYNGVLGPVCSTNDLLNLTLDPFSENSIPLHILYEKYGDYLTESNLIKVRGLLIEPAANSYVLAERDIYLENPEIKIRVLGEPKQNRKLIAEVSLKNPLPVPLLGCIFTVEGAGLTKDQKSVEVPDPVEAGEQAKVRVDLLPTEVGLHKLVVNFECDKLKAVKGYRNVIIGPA

NCCSSCCN [cystamine]
concentration at which effective as transglutaminase inhibitor (transglutaminase): greater than 10^-3 M
specificity for transglutaminases (transglutaminase): lacks specificity

CCOC(=O)c1ccc(NC(=O)C(CC2CC(Br)=NO2)NC(=O)OCc2ccccc2)cc1 (racemic) [N-benzyloxycarbonyl-D,L-β-(3-bromo-4,5-dihydroisoxazol-5-yl)-alanine (4-(ethoxycarbonyl)phenyl)amide]
onset of galactose-induced cataracts [1]: delayed the onset
inactivation of tissue transglutaminase (tissue transglutaminase): potent inactivator
cytotoxicity associated with the inhibition of T-lymphocyte transformation (human T-lymphocyte): not associated with cytotoxicity
inhibition of human T-lymphocyte transformation (human T-lymphocyte): inhibited

O=C(NC(CC1CC(Br)=NO1)C(=O)NCc1ccccc1)OCc1ccccc1 (racemic) [N-Benzyloxycarbonyl-D,L-β-(3-bromo-4,5-dihydroisoxazol-5-yl)-alanine benzylamide]
activity against Nippostronglus braziliensis (cast formation, viability and motility) [2]: active
percent reduction of parasites in the intestine (Hymenolepsis nana) (Hymenolepsis nana): significant percent reduction of parasites
percent reduction of parasites in the intestine (Nematospiroides dubius) (Nematospiroides dubius): significant percent reduction of parasites
